The record followed here is PMC11245036 (bioRxiv, 2024).

The target of assay [1] is T1, GluA2(Q) (Rattus norvegicus, UniProt P19491). Description: cryo-EM structure. In kind it is binding.
The next assay addresses GluA1 (Rattus norvegicus, UniProt P19490). The assay can be described thus: whole-cell patch clamp in HEK-293 cells, -60 mV. In kind it is cell-based. Background: Patch clamp records ionic current or voltage across a cell membrane.
Assay [2] has as its target T1, GluA2(Q). The assay can be described thus: cryo-EM structure with glutamate and CTZ. In kind it is cell-based.
In a further assay the target is GluA2(E) (Rattus norvegicus, UniProt P19491, Q607E). The assay can be described thus: whole-cell patch clamp in HEK-293 cells, -60 mV. In kind it is cell-based.
Assay [3] concerns the target GluA2(Q) subunit, as part of the fusion construct GluA2-γ2EM (rat) (UniProt P19491). Description: cryo-EM structure.

What is called IC50 is the midpoint of a concentration-inhibition curve. Usually stoichiometry N stands for a count of units in the complex or per binding partner.

Sequence of GluA1 (P19490 19-907): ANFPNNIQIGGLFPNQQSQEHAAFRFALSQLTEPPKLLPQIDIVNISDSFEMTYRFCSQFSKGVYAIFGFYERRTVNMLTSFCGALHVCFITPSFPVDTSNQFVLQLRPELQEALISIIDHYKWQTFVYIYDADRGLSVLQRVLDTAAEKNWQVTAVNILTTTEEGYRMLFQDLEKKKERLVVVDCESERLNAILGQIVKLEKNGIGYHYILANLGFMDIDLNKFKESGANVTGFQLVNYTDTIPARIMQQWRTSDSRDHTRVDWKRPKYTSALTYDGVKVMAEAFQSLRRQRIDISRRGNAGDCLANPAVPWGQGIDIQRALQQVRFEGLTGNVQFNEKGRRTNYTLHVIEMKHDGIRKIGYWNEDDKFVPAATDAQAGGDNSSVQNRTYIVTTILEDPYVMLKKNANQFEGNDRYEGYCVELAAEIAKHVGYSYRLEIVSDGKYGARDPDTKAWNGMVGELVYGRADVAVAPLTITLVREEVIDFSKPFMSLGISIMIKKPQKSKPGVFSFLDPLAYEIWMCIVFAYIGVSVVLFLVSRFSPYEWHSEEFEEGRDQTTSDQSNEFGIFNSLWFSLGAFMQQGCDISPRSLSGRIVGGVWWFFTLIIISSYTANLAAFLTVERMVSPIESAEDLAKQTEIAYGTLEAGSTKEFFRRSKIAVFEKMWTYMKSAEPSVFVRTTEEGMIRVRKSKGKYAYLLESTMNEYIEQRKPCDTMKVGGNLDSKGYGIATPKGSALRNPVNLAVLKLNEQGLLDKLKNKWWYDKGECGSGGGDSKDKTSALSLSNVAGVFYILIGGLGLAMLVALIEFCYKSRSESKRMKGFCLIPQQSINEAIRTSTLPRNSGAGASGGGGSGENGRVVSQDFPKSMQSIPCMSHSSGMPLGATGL

For `NS(=O)(=O)c1cc2c(cc1Cl)NC(C1CC3C=CC1C3)NS2(=O)=O` (centres unmarked) [CTZ], at GluA2(Q) [1], the “cryo-EM structure (GluA2-γ2mem), 100 μM CTZ” value is “Glutamate (yellow), CTZ (purple), and memantine (cyan) are shown as space filling models”.

`CC12CC3CC(C)(C1)CC(N)(C3)C2` [memantine]: the IC50 at GluA1 is 10 ± 2 µM; against GluA2(Q) [2], 49 ± 2 µM; against GluA2(E), 25 ± 2 µM.

For the compound “GluA2(Q) subunit, as part of the fusion construct GluA2-γ2EM (from UniProt P19491-2 22-883) (receptor)”, the stoichiometry N in assay [3] was 4.
